According to paper PMC3397457, “Preclinical Evaluation of Anticancer Efficacy and Pharmacological Properties of FBA-TPQ, a Novel Synthetic Makaluvamine Analog” (Marine Drugs, 2012):

Tests used:
[1] = system: human pancreatic cancer cell lines (HPAC, Panc-1, Mia PaCa-2); experiment: MTT cell survival assay, pancreatic cancer cell lines taken together; format: cell-based; conditions: 72 h
Protocol: (§1) We evaluated the effects of FBA-TPQ on the survival of several human pancreatic cancer cell lines, including HPAC (p53^+/+), Panc-1(p53^+/−), and Mia PaCa-2(p53^+/−), as well as normal IRM90 fetal fibroblast cells (Figure 2a). Cells were exposed to various concentrations of the test compound (0–10 µM) for 72 h, and cell survival rates were determined by the MTT assay, using a procedure reported previously. FBA-TPQ exerted potent effects against the test cancer cell lines, leading to significant decreases in cell viability.
The effect of the test compound on human pancreatic cancer cell viability, expressed as the percentage of cell survival, was determined using the MTT (3-(4,5-dimethylthiazol-2-yl)-2,5-diphenyl tetrazolium bromide) assay. The MTT assay is colorimetric assay for measuring the activity of enzymes that reduce MTT to formazan dyes, giving a purple color. Cells were grown in 96-well plates at 4–5 × 10^3 cells per well and exposed to different concentrations of the test compound (0, 0.1, 0.25, 0.5, 0.75, 1, 5 and 10 µM). […] The absorbance at 570 nm was recorded using an OPTImax microplate reader (Molecular Devices; Sunnyvale, CA, USA). The cell survival percentages were calculated by dividing the mean OD of compound-containing wells by that of DMSO-containing control wells. […]

[2] = system: prostate, breast, and ovarian cancer cell lines; set-up: method as in PMID 19274441, PMID 19451594, PMID 21673964; conditions: cited from earlier work
[3] = system: HPAC cells; experiment: MTT cell survival assay, HPAC; format: cell-based; conditions: Homo sapiens, 72 h, read-out: Cytotoxicity IC50
Protocol: as §1
Human pancreatic cancer cells were obtained from the American Type Culture Collection (Rockville, MD). All cell culture media contained 10% FBS and 1% penicillin/streptomycin. […]
The effect of the test compound on human pancreatic cancer cell viability, expressed as the percentage of cell survival, was determined using the MTT (3-(4,5-dimethylthiazol-2-yl)-2,5-diphenyl tetrazolium bromide) assay. […] The absorbance at 570 nm was recorded using an OPTImax microplate reader (Molecular Devices; Sunnyvale, CA, USA). The cell survival percentages were calculated by dividing the mean OD of compound-containing wells by that of DMSO-containing control wells. […]

[4] = Stability in plasma and tissue samples; format: in vitro ADME, mouse; conditions: RE within ±15%
Protocol: The stability of FBA-TPQ was evaluated at two concentrations (0.5 and 5.0 µM). […] At the designated time points, the samples were extracted and analyzed using the established RRLC analytical method. The stability of FBA-TPQ was assessed by comparing the initial concentration (time 0) with the final concentration following incubation of the compound at the noted temperatures, and expressing this difference as a percentage of the initial concentration.

[5] = system: Panc-1 xenograft tumors; experiment: Panc-1 xenograft model in nude mice; format: in vivo; conditions: for inhibition of tumor growth: 5 days/week, vs control group
Protocol: Since it exerted potent effects in vitro, we determined whether FBA-TPQ could also show anti-tumor effects in vivo. Nude mice bearing Panc-1 xenograft tumors were treated with vehicle or FBA-TPQ at 5 or 10 mg/kg/day, 5 days per week.
Figure 3 In vivo effects of FBA-TPQ administered to nude mice bearing Panc-1 xenograft tumors. (a) FBA-TPQ was administered by intraperitoneal (ip) injection at doses of 5 mg/kg/day, 5 days/week for 3 weeks and 10 mg/kg/day, 5 days/week for 2 weeks, tumors were measured […]; (b) At the end of the experiment, representative tumors were removed and photographed; (c) Animals were also monitored for changes in body weight as a surrogate marker for toxicity.
The animal use and care protocol was approved by the Institutional Animal Use and Care Committee of Texas Tech University Health Sciences Center. Female athymic pathogen-free nude mice (nu/nu, 4–6 weeks) were purchased from the Charles River Laboratories International. Inc. (Wilmington, MA, USA). To establish Panc-1 human pancreatic cancer xenograft tumors, cultured Panc-1 cells were harvested from monolayer cultures, washed twice with serum-free medium, re-suspended and injected sc (5 × 10^6 cells, total volume 0.2 mL) into the left inguinal area of the mice. All animals were monitored for activity, physical condition, body weight, and tumor growth. Tumor size was determined every other day by caliper measurement of two perpendicular diameters of the implant. Tumor mass (in g) was calculated by the formula, 1/2a × b^2 where “a” is the long diameter and “b” is the short diameter (in cm).
The animals bearing human cancer xenografts were randomly divided into various treatment groups and a control group (7–10 mice/group). The untreated control group received the vehicle only. For the Panc-1 xenograft model, FBA-TPQ was dissolved in PEG400: ethanol: saline (57.1: 14.3: 28.6, v/v/v),and was administered by intraperitoneal (ip) injection at doses of 5 and 10 mg/kg/d, 5 d/wk for 3 weeks.

[6] = Plasma protein binding by micro-ultrafiltration; format: in vitro ADME; conditions: pooled mouse plasma, 37 °C 1 h, read-out: bound to plasma proteins (converted)
Protocol: To determine the extent to which FBA-TPQ is bound by plasma proteins, pooled plasma samples were examined for their capacity to bind the compound at concentrations of 0.5 μM and 5 μM. FBA-TPQ was considerably bound to proteins in mouse plasma, with 72.32% ± 2.53%; and 77.78% ± 1.17% of the compound being bound to plasma proteins at concentrations of 0.5 μM and 5.0 μM, respectively. Extensive binding of a candidate compound to plasma proteins can impair its biodistribution and may therefore impact its therapeutic efficacy. However, compounds that are highly bound to proteins display longer half-lives, durations of action, and higher volumes of distribution.
The extent of binding to mouse plasma proteins by FBA-TPQ was determined using a micro-ultrafiltration system as previously described. FBA-TPQ was dissolved in methanol and added to pooled mouse plasma to yield final concentrations of 0.5 µM and 5.0 µM. Control solutions were prepared in methanol to account for non-specific binding of FBA-TPQ to the filter membranes. Duplicate preparations of each concentration were incubated at 37 °C for 1 h, before being placed into the sample reservoirs of Amicon Centrifree® ultrafiltration tubes (30 kDa exclusion; Millipore).

Q: With O=C1C(NCc2ccc(F)cc2)=CC2=NCCc3c[nH]c1c32 [FBA-TPQ, 7-(4-fluorobenzylamino)-1,3,4,8-tetrahydropyrrolo[4,3,2-de]quinolin-8(1H)-one] as the compound, how does the “differences in IC50, normal IMR90 fibroblasts vs pancreatic cancer cells” value [1] read?
A: 10–50 fold

Q: What about the IC50 values [2] of the same compound?
A: nanomolar/low micromolar

Q: What about the IC50 [3] of the same compound?
A: 540 ± 30 nM

Q: And the “stability in plasma and tissue samples” value ([4]; 3 months at −80 °C)?
A: stable

Q: And the “stability in plasma and tissue samples” value ([4]; 2 h at 22 °C following three freeze/thaw cycles (−20 to 22 °C))?
A: stable

Q: And the “stability in plasma and tissue samples” value ([4]; 24 h after preparation at 22 °C, low and high concentrations)?
A: stable

Q: What about the “inhibition of tumor growth” value ([5]; 5 mg/kg/day ip) of the same compound?
A: 77.8%

Q: And the “inhibition of tumor growth” value ([5]; 10 mg/kg/day ip)?
A: 90.1%

Q: And the “host toxicity (body weight as surrogate marker)” value ([5]; 5 and 10 mg/kg/day ip)?
A: No significant host toxicity

Q: What about the tumor regression/remission ([5]; both treated groups (5 and 10 mg/kg/day ip)) of the same compound?
A: significant tumor regression or complete remission

Q: What about the fraction unbound at 1 h, 0.5 µM ([6]; 0.5 μM) of the same compound?
A: 0.277

Q: And the fraction unbound at 1 h, 5 µM ([6]; 5.0 μM)?
A: 0.222
